Calls of active or inactive are those of the source. No cut-off for these calls is given here.
tested on: Rattus norvegicus; assay: Antihyperglycemic activity in Zucker fa/fa rat by oral glucose tolerance test at 3 umol/kg, po; format: functional, organism-based

Row | SMILES | Activity
1 | CN(CC#N)C(=O)[C@@H](N)C12CC3CC(CC(O)(C3)C1)C2 | Active

target: Dipeptidyl peptidase 4 (Homo sapiens, UniProt P27487); assay: Inhibition of DPP4
Sequence (P27487 whole entry): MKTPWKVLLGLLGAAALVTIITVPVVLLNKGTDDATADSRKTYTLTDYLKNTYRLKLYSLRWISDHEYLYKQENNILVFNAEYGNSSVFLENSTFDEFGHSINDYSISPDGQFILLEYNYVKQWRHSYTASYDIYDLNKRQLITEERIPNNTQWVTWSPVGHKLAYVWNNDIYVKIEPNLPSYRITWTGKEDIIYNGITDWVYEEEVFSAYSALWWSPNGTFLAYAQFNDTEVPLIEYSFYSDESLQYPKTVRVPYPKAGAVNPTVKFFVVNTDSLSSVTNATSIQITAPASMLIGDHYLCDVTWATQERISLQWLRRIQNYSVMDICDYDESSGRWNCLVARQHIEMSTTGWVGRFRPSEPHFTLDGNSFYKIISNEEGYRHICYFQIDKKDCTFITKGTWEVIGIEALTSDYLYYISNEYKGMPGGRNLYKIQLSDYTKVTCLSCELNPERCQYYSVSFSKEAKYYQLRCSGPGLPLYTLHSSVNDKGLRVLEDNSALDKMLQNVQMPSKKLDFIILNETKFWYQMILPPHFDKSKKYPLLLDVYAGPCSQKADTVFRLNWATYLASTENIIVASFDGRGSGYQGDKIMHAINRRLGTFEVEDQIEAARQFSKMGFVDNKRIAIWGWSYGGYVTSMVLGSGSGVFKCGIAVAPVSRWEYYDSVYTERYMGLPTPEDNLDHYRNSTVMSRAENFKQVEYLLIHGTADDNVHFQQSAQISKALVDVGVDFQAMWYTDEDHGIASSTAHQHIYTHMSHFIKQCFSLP

Row | SMILES | Ki [µM]
2 | CCCCN(CC#N)C(=O)[C@@H](N)C(C)(C)C | > 10
3 | N#CCNC(=O)[C@@H](N)C12CC3CC(CC(C3)C1)C2 | > 10
4 | N#CCN(Cc1ccccc1)C(=O)[C@@H](N)C12CC3CC(CC(C3)C1)C2 | > 10
5 | CC(C)(C#N)NC(=O)[C@@H](N)C12CC3CC(CC(C3)C1)C2 | > 10
6 | CC(C)(C#N)NC(=O)[C@@H](N)C(C)(C)C | > 10
